In data set [1] the test system is human tongue carcinoma cell line SCC-15. Description: MTS cytotoxicity assay, SCC-15. It is filed as cell-based. Conditions: for IC50: Homo sapiens, SCC-15, 48 h treatment. From the text: (§1) To investigate the relationship between anticancer activity and tyrosine kinase inhibitory activity, these compounds were further evaluated for in vitro cytotoxicity against five cancer cell lines (human cervical carcinoma cell line HeLa, human breast carcinoma cell line MCF-7, human liver carcinoma cell line HepG2, human tongue carcinoma cell line SCC-15, and human lung carcinoma A549) using MTS assay. Indo 5 was also used as a reference compound.
(§2) The five types of human cancer cell lines (HeLa, HepG2, MCF-7, SCC-15, and A549) were cultured aseptically using Dulbecco’s modified Eagle’s medium (DMEM) supplemented with 10% (v/v) fetal bovine serum (FBS) and penicillin (100 units mL^−1)/streptomycin ([…]), at pH 7.2 and 5% CO2 humidified atmosphere at 37 °C. After attaining 80% confluence, the cells were trypsinized with 0.25 trypsin–EDTA and diluted with media to a fixed number of cells.
(§3) Cytotoxic activity was assessed using the standard MTS method by using triplicate assay. The cells were seeded into 96-well plates containing the medium at the density of 4000–6000 cells/mL (100 μL/well). The compounds were dissolved in DMSO to the concentration of 100 mM and diluted in a culture medium to the concentrations needed. After 24 h, the cultured cells were treated with concentrations of synthesized compounds (3.125 μM to 100 μM for tumor cells) for 48 h. After 48 h of incubation, the supernatant was replaced by fresh medium (100 μL/well) and 10 μL MTS reagent ([3-(4,5-dimethylthiazol-2-yl)-5-(3-carboxymethoxyphenyl)-2-(4-sulfophenyl)-2H-tetrazolium, inner salt]) was added to each well. The plate was further incubated for 3 h at 37 °C in 5% CO2. The optical absorbance in individual wells was determined at 492 nm using a microplate reader. The inhibition rates were calculated by the following formula: Inhibition rate (%) = (ODnegative control − ODsample)/(ODnegative control − ODblank) × 100%
(§4) IC50 was calculated using GraphPad Prism Software (GraphPad Prism 5, La Jolla, CA, USA). For each concentration, at least three wells were performed to calculate the average parameter.

The target of data set [2] is tyrosine kinase. The data set can be described thus: Tyrosine kinase inhibitory activity assay (self-made ELISA kit). The data set is classed as biochemical. Conditions: for IC50: tyrosine kinase tissue extract, 37 °C 30 min. The protocol: The 16 designed compounds were first evaluated for tyrosine kinase inhibitory activity using ELISA assay. Indo 5 was used as a reference compound. The kit was self-made and is a very effective and economical method for preliminary tyrosine kinase inhibitory activity evaluation.
The tyrosine kinase inhibitory activity assay was performed as described in the literature. Details of the experimental procedures are presented in Supplementary Materials associated with this article. The IC50 was calculated using GraphPad Prism Software (GraphPad Prism 5, La Jolla, CA, USA). For each concentration, at least three wells were performed to calculate the average parameter.
100μL to each well. The plate was covered with its lid, and incubated at 4℃ overnight (10-12 hours). Then it was washed with 200μL elution buffer once, and dried at 37℃ for 2 h. After that, it was washed with 10mM PBS once, dried at room temperature, and then stored at 4℃ […]
2.1.5. Groups: Blank control: 60μL 1×tyrosine kinase buffer + 50μL 1×tyrosine kinase buffer containing ATP; Negative control: 10μL 1×tyrosine kinase buffer + 50μL 1×tyrosine kinase buffer containing tissue extract + 50μL 1×tyrosine kinase buffer containing ATP; Positive control: 10μL 1×tyrosine kinase buffer containing L029 + 50μL 1×tyrosine kinase buffer containing tissue extract + 50μL 1×tyrosine kinase buffer containing ATP; Vehicle control: 10μL 1×tyrosine kinase buffer containing DMSO + 50μL 1×tyrosine kinase buffer containing tissue extract + 50μL 1×tyrosine kinase buffer containing ATP; Compounds to be screened: 10μL 1×tyrosine kinase buffer containing compounds to be tested + 50μL 1× tyrosine kinase buffer containing tissue extract + 50μL 1×tyrosine kinase buffer containing ATP. (First, L029 and the compounds were allowed to interact with the tyrosine kinase tissue extract at room temperature for 10 min in advance, and did the same to the Blank control and the Vehicle control, then 50μL 1×tyrosine kinase buffer containing ATP was added to […]
2.1.6. Tyrosine kinase inhibitory activity assay: 1×tyrosine kinase buffer was prepared by evenly mixing 1 mL 10× tyrosine kinase buffer with 9 mL DDW. The tissue extract was diluted with 1×tyrosine kinase buffer appropriately, mixed with it gently and evenly, and placed on ice. ATP stock solution was mixed with 1×tyrosine kinase buffer at the final concentration of 3mM , and placed on ice. The microplate was added in respective wells with the groups formulated as above, covered with the lid, and incubated at 37℃ for 30 min. The microplate was washed with 200μL elution buffer and tapped until the residual buffer was removed, and this procedure was repeated for five times. To each well, 100μL antibody diluent (antibody elution buffer diluted at a ratio of 1:2000) was added. The microplate was covered with the lid, and incubated at room temperature for 30 min. OPD solution was prepared by addition of 4 mg OPD into a mixture of 4.86 mL 0.1 mol/L citric acid solution and 5.14 mL 0.2 mol/L Na2HPO4 solution, followed by addition of 50μL 30% H202 to allow for complete dissolution, and then was protected from light. The antibody solution was […]
removed. The microplate was washed with 200μL elution buffer and tapped until the residual buffer was removed, and this procedure was repeated for five times. 100μL freshly prepared OPD was added, and reacted at room temperature light tight for precisely 7 min. Negative […]
100μL 2.5 N H2SO4 was added to terminate the reaction. OD
2.1.7. Sample screening: Samples were screened preliminarily by using triplicate assay. The effect of the samples on tyrosine kinase inhibitory activity was tested, and the inhibition rate was calculated. Inhibition rate (%)=(ODnegative control – ODsample) / (ODnegative control* – ODblank) × 100%; *While calculating inhibition rate of positive drugs, ODnegative control in the equation was replaced with ODvehicle control to exclude the influence of DMSO on tyrosine kinase activity. […]
2. S. Praveen Kumar, Jiri Gut, Rita C. […]

Data set [3] deals with human breast carcinoma cell line MCF-7. Description: MTS cytotoxicity assay, MCF-7. The data set is classed as cell-based. Conditions: for IC50: Homo sapiens, MCF7, 48 h treatment.
From the text: as §1, §2, §3, §4
(Tetrazolium dyes change colour on reduction, which living cells bring about.)

The test system of data set [4] is five human cancer cell lines (HeLa, HepG2, MCF-7, SCC-15, and A549). Description: MTS cytotoxicity assay, across the cancer cell line panel. The data set is classed as cell-based. Conditions: for IC50: Homo sapiens, average over the cancer cell lines, read-out: average IC50 value (antitumor potential); for anticancer / antiproliferative activity over the cell line panel, in words: MTS, Indo 5 as reference.
From the text: as §1, §2, §3, §4

Data set [5] deals with human cervical carcinoma cell line HeLa. The data set can be described thus: MTS cytotoxicity assay, HeLa. The data set is classed as cell-based. To be noted: for IC50: Homo sapiens, HeLa, 48 h treatment.
From the text: as §1, §2, §3, §4

Data set [6] deals with human lung carcinoma A549. Description: MTS cytotoxicity assay, A549. The data set is classed as cell-based. To be noted: Homo sapiens, A549, 48 h treatment.
From the text: as §1, §2, §3, §4

For data set [7], the system named is human liver carcinoma cell line HepG2. Description: MTS cytotoxicity assay, HepG2. Conditions: for IC50: Homo sapiens, HepG2, 48 h treatment. It is filed as cell-based.
From the text: as §1, §2, §3, §4

SMILES strings stand for the structures. A value given as a limit tells only on which side of the number the result lay.

As usually defined, the IC50 is the midpoint of a concentration-inhibition curve. By melting point is commonly meant the temperature, or range, at which the solid turns liquid. In turn, `O=C1Nc2ccccc2/C1=C/[S+]([O-])Cc1ccc(Br)cc1` (centres unmarked) [Compound 6j, (Z)-3-(((4-Bromobenzyl)sulfinyl)methylene)indolin-2-one] displayed a melting point of 195 to 196 °C. Also, in data set [1], the “activity against the SCC-15 cell line, in words” value was “considerable cytotoxic activity” and the midpoint of inhibition, the IC50, lay at 34.9 ± 0.34 µM. Inhibition in data set [2] was half-maximal at 1.34 ± 0.03 µM (IC50). In addition, in data set [3], the “activity against the MCF-7 cell line, in words” value is recorded as “good antitumor activity” and 30.77 ± 0.29 µM corresponded to half-maximal inhibition (IC50). Also, in data set [4], the IC50 is < 40 µM and the “anticancer / antiproliferative activity over the cell line panel, in words” value was “comparable antiproliferative activity against four cancer cell lines compared with compound Indo 5”. Besides, the IC50 in data set [5] turned out to be 24.1 ± 0.52 µM. In data set [6], this molecule returned an IC50 of 44 ± 1.89 µM. Also, in data set [7], the “activity against the HepG2 cell line, in words” value is given as “considerable cytotoxic activity” and the IC50 came to 36.9 ± 0.49 µM.
On to `Cc1cccc(C[S+]([O-])/C=C2\C(=O)Nc3ccccc32)c1` (centres unmarked) [Compound 6m, (Z)-3-(((3-Methylbenzyl)sulfinyl)methylene)indolin-2-one], for which the melting point lay within 174 to 175 °C. Moreover, in data set [1], the IC50 was 50.3 ± 1.51 µM. In data set [2], this molecule registered an IC50 of 3.85 ± 0.09 µM. This molecule also returned an IC50 in data set [3] of 41.4 ± 2.2 µM. Also, in data set [5], the IC50 amounted to 27 ± 1.2 µM. The molecule also showed an IC50 in data set [6] of 79.32 ± 0.79 µM. This molecule also came in with an IC50 in data set [7] of 36 ± 2.13 µM.
In turn, `Cc1ccc(C[S+]([O-])/C=C2\C(=O)Nc3ccccc32)cc1` (centres unmarked) [Compound 6n, (Z)-3-(((4-Methylbenzyl)sulfinyl)methylene)indolin-2-one] yielded a melting point of 186 to 188 °C. 90.5 ± 2.32 µM corresponded to half-maximal inhibition in data set [1] (IC50). In data set [2], this molecule returned an IC50 of 4.39 ± 0.23 µM. This molecule also registered an IC50 in data set [3] of 55.1 ± 1.51 µM. Further, it took 27.8 ± 0.78 µM to reach half-maximal inhibition in data set [5] (IC50). This molecule also showed an IC50 in data set [6] of 59.6 ± 0.97 µM. Moreover, the IC50 in data set [7] is 59 ± 0.97 µM.
Take `O=C1Nc2ccc(Br)cc2/C1=C/[S+]([O-])Cc1ccccc1` (centres unmarked) [Compound 6o, (Z)-3-((Benzylsulfinyl)methylene)-5-bromoindolin-2-one]: the melting point fell in the range of 200 to 201 °C. Further, in data set [1], the “activity against the SCC-15 cell line, in words” value was “considerable cytotoxic activity” and the IC50 was determined as 28.6 ± 1.58 µM. The IC50 in data set [2] is 2.69 ± 0.29 µM. Further, in data set [3], the “activity against the MCF-7 cell line, in words” value is “good antitumor activity” and 32.3 ± 0.77 µM corresponded to half-maximal inhibition (IC50). Besides, in data set [4], the IC50 was < 40 µM and the “anticancer / antiproliferative activity over the cell line panel, in words” value is reported as “comparable antiproliferative activity against four cancer cell lines compared with compound Indo 5”. The same molecule registered an IC50 in data set [5] of 18.2 ± 0.66 µM. In addition, in data set [5] (Indo 5 as reference), the “activity against the HeLa cell line, in words” value is given as “stronger activity than Indo 5”. In addition, the IC50 in data set [6] came out at 54.9 ± 0.66 µM. For the same molecule, in data set [7], the “activity against the HepG2 cell line, in words” value is “considerable cytotoxic activity” and the IC50 was found to be 54.4 ± 0.88 µM.
Take `O=C1Nc2ccc(Br)cc2/C1=C/[S+]([O-])Cc1ccccc1F` (centres unmarked) [Compound 6p, (Z)-5-Bromo-3-(((2-fluorobenzyl)sulfinyl)methylene)indolin-2-one]: the melting point lay in the range of 208 to 209 °C. The concentration for half-maximal inhibition (IC50) in data set [1] is > 100 µM. Moreover, the “tyrosine kinase inhibitory activity, in words” value in data set [2] (Indo 5 as reference) is on record as “weak tyrosine inhibitory activity”. This molecule showed an IC50 in data set [2] of 7.93 ± 0.2 µM. The IC50 in data set [3] was determined as 76.4 ± 1.5 µM. The molecule further yielded an IC50 in data set [5] of 19.8 ± 0.25 µM. Also, in data set [6], the IC50 was > 100 µM. Also, in data set [7], the 50% inhibitory concentration (IC50) was > 100 µM.

The record behind these values is PMC6150246, “Design, Synthesis and Preliminary Biological Evaluation of Novel Benzyl Sulfoxide 2-Indolinone Derivatives as Anticancer Agents” (Molecules : A Journal of Synthetic Chemistry and Natural …, 2017).
